Assay results published in patent US20210379088A1, “CANCER REGRESSION BY INDUCING A REGENERATION-LIKE RESPONSE” (VIB VZW, priority 2018, published 2021).

Legend:
liver = conditions: mice, feeding for 5 days with 0.2% cholic acid; cited from earlier work
[1] = test system: N-Akt tumors (intrahepatic cholangiocarcinoma); assay: N-Akt intrahepatic cholangiocarcinoma in Apo>hYAP1SA mice, doxycycline-induced hYAP1SA expression in peritumoral hepatocytes; type: in vivo, mouse
Description: For intrahepatic delivery of the transposon system (Kang et al., 2011), eight to ten-week-old mice were secured and hydrodynamically injected with 1 μg pCMV/SB11, 4 μg pSBbi-puro-myrAKT-HA, 20 μg of pSBbi-puro-myc-NICD, or 10 μg of cMyc-IRES-NRas via lateral tail vein. For the expression of SB-Cre^ERT2 or inducible Bcl2, 15 μg of pSBbi-puro-Cre^ERT2 or 10 μg of pSBTetON—RH-Flag-Bcl2, respectively, were added to the plasmid mixture. All plasmids were diluted in sterile filtered 0.9% NaCl, and the total volume was adjusted to 10% (in ml) of the total body weight (in grams).
(§1) For conditional deletion of Yap and Taz, tamoxifen was administered for 5 consecutive days, via intraperitoneal injection at a concentration of 1.6 mg/kg in corn oil. In order to activate the expression of TetON-Bcl2 or human YAP expression in Apo>hYAP^1SA mice, 0.2 mg/ml of doxycycline was diluted in filtered sterile drinking water supplemented with 2.5% sucrose and administered ad libido. Doxycycline containing water bottles were protected from light and replaced every other day.
(§2) All quantifications were performed using ImageJ software. Quantification of relative tumor area was done by measuring the tumor area (marked by HA-Akt positive cells in N-Akt model, phospho-ERK expression in Myc-Ras model or S100 expression in melanoma model) and the total area (marked by DAPI). […] We inferred absolute tumor load by multiplying the tumor area by the liver weight of each mouse (absolute tumor load (cm^3)=tumor area (cm)×liver weight (grams).
We next tested whether overexpression of a constitutively active form of YAP (YAP^1SA; this is the YAP variant carrying the mutation Ser127Ala; see description hereinabove), due to mutation of the main Lats1/2 phosphorylation site, is sufficient to recapitulate the tumor regression caused by Lats1/2 deletion. We used transgenic mice that conditionally overexpressed human YAP^1SA in hepatocytes under the control of a doxycycline (Dox) inducible promoter (TetON system) and where the reverse tetracycline transactivator (rtTA) is expressed under the hepatocyte-specific ApoE promoter (hereafter Apo>hYAP^1SA)(Dong et al., 2007). Upon doxycycline feeding, Apo>hYAP^1SA mice induced hepatocyte proliferation and developed liver overgrowth as previously reported (FIG. 10A,B) (Dong et al. 2007). We then induced N-Akt tumors in Apo>hYAP^1SA mice and induced hYAP^1SA expression after 4 weeks of tumor development by adding doxycycline to their drinking water (FIG. 5A). As expected, YAP protein levels increased in doxycycline treated Apo>hYAP^1SA mice but not in non-treated Apo>hYAP^1SA mice or in doxycycline treated C57BL/6 mice (FIG. 10C). […]

[2] = test system: NRAS-mutant metastatic melanoma cells in the liver; assay: NRas+/INK4a-/- melanoma liver metastases in Apo>hYAP1SA mice, doxycycline-induced hYAP1SA expression; type: in vivo, mouse; conditions: Apo>YAP1SA mice injected with 10.000 melanoma cells; 2 weeks after YAP activation by doxycycline in drinking water
Description: For intrahepatic seeding of tumor cells, mice were hydrodynamically injected with 10.000 mouse melanoma cells (NRas^+/INK4a^−/−) diluted in sterile minimal essential medium (MEM), adjusted to 10% (in ml) of total body weight (in grams). All injected mice were monitored daily and sacrificed in groups at appropriate time points. All experimental and control groups contained 5 to 10 mice.
as §1
as §2, with “(grams). […]” for “(grams).”

N-Akt tumors = assay: Control experiments: effect of tamoxifen or AAV-Cre on N-Akt tumor growth in control mice; type: in vivo, mouse; conditions: control mice with N-Akt tumors without floxed-gene deletion (C57BL/6, or Yap fl/fl;Taz fl/fl without SB-CreERT2)
Description: as §1
Adeno-associated virus serotype 8 (AAV8) expressing CRE recombinase under the hepatocyte specific promoter TBG was purchased from UPenn (AAV8.TBG.PI.Cre.rBG, catalog AV-8-PV1091). Mice received 5×10^11 GC of AAV8.TBG.PI.Cre.rBG diluted in 200 ul of 1× phosphate-buffered saline (PBS) by tail vein injection.
as §2

Question: With `C[C@H](CCC(=O)O)[C@H]1CC[C@H]2[C@@H]3[C@H](O)C[C@@H]4C[C@H](O)CC[C@]4(C)[C@H]3C[C@H](O)[C@]12C` [cholic acid] as the molecule, how does the liver size increase (liver) read?
Answer: 30%

Question: What does the source list for `C[C@H]1c2cccc(O)c2C(=O)C2=C(O)[C@]3(O)C(=O)C(C(N)=O)=C(O)[C@@H](N(C)C)[C@@H]3[C@@H](O)[C@@H]21` [doxycycline]?
Answer: survival after tumor initiation ([1]; Apo>hYAP1SA mice, two weeks of doxycycline administration): up to 14 weeks; average survival longer than the control mice ([1]; treated Apo>hYAP1SA mice): 4 weeks; mice with only a few small tumor remnants ([1]; treated Apo>hYAP1SA mice, after 2 weeks of doxycycline): 5/10; treated mice still alive ([1]; within 6 weeks of tumor initiation, when half of the control mice had died): more than 80%; reduction in tumor load [2]: 98%

Question: For `CC/C(=C(\c1ccccc1)c1ccc(OCCN(C)C)cc1)c1ccccc1` [tamoxifen], which “effect on tumor development, growth or total tumor volume” value (N-Akt tumors) is on record?
Answer: not affected
